Tested on: E. coli HB101/pPAP5 (agglutination of human erythrocytes)
Experiment: Inhibition of haemagglutination (HA inhibition) of human erythrocytes by E. coli
Format: cell-based
Conditions: for IC50: Escherichia coli, Erythrocyte; for Relative potency (%): in relation to compound 1, calculated from IC50; for ΔΔG^o: ΔΔG°=RTlnKrel, Krel = IC50 ratio to compound 1; for inhibitory power (in words): haemagglutination inhibition, compared with the methyl galabioside / unmodified galabioside
Excerpt: Bacterial strain HB101/pPAPS. Plasmid pPAP5 carries the pap gene cluster isolated from the uropathogenic E.coli isolate J96. The clone produces P pill that mediate agglutination of human erythrocytes by binding to the galabiose-containing P-blood group antigens present on the erythrocyte surface. The galabiose binding property resides in the PapG gene product which is present at the tip of the P pilus as a minor component.
HA of a 1% human P erythrocyte suspension in phosphate-buffered saline was determined for agar-grown organisms by suspending the bacteria to a Klett of 490 (ca 1×10^9 bacteria/mL). A sample of the bacterial suspension (25 μL) was serially diluted in microtiter plates containing 25 μL PBS in each well. An equal volume of erythrocyte suspension was added and after mixing, the plates were incubated at 4° C. for 18 h. The HA endpoint was defined as the dilution in the last well before erythrocyte buttons were formed. The titer was expressed as the reciprocal of the endpoint dilution.
The HA titer of the strains to be tested was determined as described above and the cells were diluted so that each strain gave a titer of 64. The concentration of each of the analogues 1-25 was adjusted to 100 mM and 25 μL of each analogue was serially diluted in microtiter plates containing 25 μL of PBS in each well. The bacterial suspension (25 μL; HA titer=64) was then added to each well. After incubation for 30 min at room temperature, human erythrocytes (1% suspension) were added by gentle mixing and the plates were incubated at 4° C. overnight. The endpoint was defined as the greatest dilution of the analogue (minimal concentration) that gave a 50% inhibition of the HA (IC50).
The IC50 -values given in the tables are mean values from 3 consecutive runs. The ratio of the IC50 -value for an inhibitor and compound 1 is the relative equilibrium constant, Krel. This value was used for the calculation of the difference free energy values (ΔΔG°) using the expression ΔΔG°=RTlnKrel. It should be stressed that the conclusions made here about the nature of the adhesin receptor is based on the assumption that all the inhibitors have similar over-all confirmations oriented in a similar way in the receptor side and that only one type of galablest-specific receptor is present in the adhesin.

[1] = Table 2, glycoside analogs, inhibition of agglutination of human erythrocytes by E. coli, mean of 3 runs
[2] = Table 2, in relation to compound 1 (IC50 0.20 mM)
[3] = Table 2, relative to compound 1 (IC50 0.20 mM)
[4] = Table 1, inhibition of agglutination of human erythrocytes by E. coli, mean of 3 consecutive runs
[5] = Table 2, footnote a: separate inhibition experiment where reference compound 1 showed IC50 = 0.0434 mM
[6] = Table 2, footnote a: separate experiment, relative to compound 1 IC50 = 0.0434 mM

Row | Compound | IC50 [1] | ΔΔG (kJmol^-1) [3] | IC50 [4] | Relative potency (%) (Table 1) | ΔΔG^o (Table 1) | further results
1 | CC(C)CO[C@@H]1O[C@H](CO)[C@H](O[C@H]2O[C@H](CO)[C@H](O)[C@H](O)[C@H]2O)[C@H](O)[C@H]1O [Compound 19] | 87 µM | -1.8 kJmol^-1 | – | – | – | Inhib. power (%) [2]: 220%
2 | CO[C@@H]1O[C@H](CO)[C@H](O[C@H]2O[C@H](CO)[C@H](O)C[C@H]2O)[C@H](O)[C@H]1O [Compound 6] | – | – | 6500 µM | 3.0% | 1.96 kcal/mol | –
3 | CC[C@@H]1[C@@H](O)[C@H](OC)O[C@H](CO)[C@@H]1O[C@H]1O[C@H](CO)[C@H](O)[C@H](O)[C@H]1O [Compound 16] | – | – | 3800 µM | 5.1% | 1.65 kcal/mol | –
4 | CCS[C@@H]1O[C@H](CO)[C@H](O[C@H]2O[C@H](CO)[C@H](O)[C@H](O)[C@H]2O)[C@H](O)[C@H]1O [Compound 28, Ethyl 1-thio-4-O-(α-D-galactopyranosyl)-β-D-galactopyranoside] | – | – | – | – | – | IC50 [5]: 16.3 µM; Inhib. power (%) [6]: 266%; ΔΔG (kJmol^-1) [6]: -2.3 kJmol^-1
5 | CO[C@@H]1O[C@H](CO)[C@H](O[C@@H]2C[C@@H](O)[C@@H](O)[C@@H](CO)O2)[C@H](O)[C@H]1O [Compound 5] | – | – | 2600 µM | 7.6% | 1.43 kcal/mol | –
6 | CO[C@@H]1O[C@H](CO)[C@H](O[C@H]2O[C@H](CO)[C@H](O)[C@H](OC)[C@H]2O)[C@H](O)[C@H]1O [Compound 11, Methyl 4-O-(3-O-methyl-α-D-galactopyranosyl)-β-D-galactopyranoside] | – | – | 87 µM | 220% | -0.43 kcal/mol | inhibitory power (in words): marked increase in the inhibitory power
7 | CO[C@@H]1O[C@H](CO)[C@H](O[C@H]2O[C@H](CO)[C@H](F)[C@H](O)[C@H]2O)[C@H](O)[C@H]1O [Compound 13] | – | – | 3500 µM | 5.6% | 1.6 kcal/mol | –
8 | CO[C@H]1C[C@@H](O)[C@@H](O[C@H]2O[C@H](CO)[C@H](O)[C@H](O)[C@H]2O)[C@@H](CO)O1 [Compound 2] | – | – | 350 µM | 56% | 0.335 kcal/mol | –
9 | CO[C@@H]1O[C@H](CO)[C@H](O[C@H]2O[C@H](CO)[C@H](O)[C@H](O)[C@H]2O)[C@H](OC)[C@H]1O [Compound 9] | – | – | 1600 µM | 12% | 1.17 kcal/mol | –
10 | CO[C@@H]1O[C@H](CF)[C@H](O[C@H]2O[C@H](CO)[C@H](O)[C@H](O)[C@H]2O)[C@H](O)[C@H]1O [Compound 12] | – | – | 9300 µM | 2.1% | 2.15 kcal/mol | –
11 | CO[C@@H]1O[C@H](CO)[C@H](O[C@H]2O[C@H](C)[C@H](O)[C@H](O)[C@H]2O)[C@H](O)[C@H]1O [Compound 8] | – | – | 3700 µM | 5.3% | 1.63 kcal/mol | –
12 | CO[C@@H]1O[C@H](CO)[C@H](O[C@H]2O[C@H](CO)[C@H](O)[C@H](O)[C@H]2O)[C@H](C)[C@H]1O [Compound 15] | – | – | 390 µM | 50% | 0.382 kcal/mol | –
13 | COC[C@H]1O[C@@H](OC)[C@H](O)[C@@H](O)[C@H]1O[C@H]1O[C@H](CO)[C@H](O)[C@H](O)[C@H]1O [Compound 10] | – | – | > 25000 µM | < 1% | > 2.63 kcal/mol | –
14 | CCCCS(=O)(=O)CC(CO[C@@H]1O[C@H](CO)[C@H](O[C@H]2O[C@H](CO)[C@H](O)[C@H](O)[C@H]2O)[C@H](O)[C@H]1O)CS(=O)(=O)CCCC [Compound 27, 3-Butylsulfonyl-2-butylsulfonylmethylpropyl 4-O-α-D-galactopyranosyl-β-D-galactopyranoside] | – | – | – | – | – | IC50 [5]: 2.3 µM; Inhib. power (%) [6]: 1887%; ΔΔG (kJmol^-1) [6]: -6.8 kJmol^-1
15 | OC[C@H]1O[C@H](O[C@@H]2[C@H](O)[C@@H](O)C(O)O[C@@H]2CO)[C@H](O)[C@@H](O)[C@H]1O (stereo partly shown) [Compound 24] | 1400 µM | 4.6 kJmol^-1 | – | – | – | Inhib. power (%) [2]: 14%
16 | OCC(O)CO[C@@H]1O[C@H](CO)[C@H](O[C@H]2O[C@H](CO)[C@H](O)[C@H](O)[C@H]2O)[C@H](O)[C@H]1O (stereo partly shown) [Compound 21] | 130 µM | -0.9 kJmol^-1 | – | – | – | Inhib. power (%) [2]: 150%
17 | CO[C@@H]1O[C@H](C)[C@H](O[C@H]2O[C@H](CO)[C@H](O)[C@H](O)[C@H]2O)[C@H](O)[C@H]1O [Compound 4] | – | – | 4200 µM | 4.7% | 1.7 kcal/mol | –
18 | CCO[C@@H]1O[C@H](CO)[C@@H](O[C@@H]2O[C@H](CO)[C@H](O)[C@H](O)[C@H]2O)[C@H](O)[C@H]1O [Compound 26, Galβ1-4GlcβOCH2 CH3, reference compound] | > 25000 µM | > 11 kJmol^-1 | – | – | – | Inhib. power (%) [2]: < 1.0%
19 | CO[C@@H]1O[C@H](CO)[C@H](O[C@H]2O[C@H](CO)[C@@H](O)[C@H](O)[C@H]2O)[C@H](O)[C@H]1O [Compound 17] | – | – | 5100 µM | 3.8% | 1.82 kcal/mol | –
20 | CO[C@@H]1O[C@H](CO)[C@H](O[C@H]2O[C@H](CO)[C@H](O)[C@H](O)[C@H]2O)[C@H](O)[C@H]1O [Compound 1, Galα1-4GalβOMe, reference compound] | 200 µM | 0.00 kJmol^-1 | 200 µM | – | 0 kcal/mol | IC50 [5]: 43.4 µM
21 | CO[C@@H]1O[C@H](CO)[C@H](O[C@H]2O[C@H](CF)[C@H](O)[C@H](O)[C@H]2O)[C@H](O)[C@H]1O [Compound 14] | – | – | 350 µM | 56% | 0.323 kcal/mol | –
22 | C[Si](C)(C)CCO[C@@H]1O[C@H](CO)[C@@H](O[C@@H]2O[C@H](CO)[C@H](O[C@H]3O[C@H](CO)[C@H](O)[C@H](O)[C@H]3O)[C@H](O)[C@H]2O)[C@H](O)[C@H]1O [Compound 22] | 260 µM | 0.7 kJmol^-1 | – | – | – | Inhib. power (%) [2]: 75%
23 | OC[C@H]1O[C@H](O[C@@H]2[C@H](O)[C@@H](O)[C@H](OCCSCCCCCCCCCSCCO[C@@H]3O[C@H](CO)[C@H](O[C@H]4O[C@H](CO)[C@H](O)[C@H](O)[C@H]4O)[C@H](O)[C@H]3O)O[C@@H]2CO)[C@H](O)[C@@H](O)[C@H]1O [Compound 25] | 6.8 µM | -7.8 kJmol^-1 | – | – | – | Inhib. power (%) [2]: 2900%; inhibitory power (in words): very high inhibitory power

— patent publication US5474986A, “Method for treating galabiose-binding bacteria infections” (priority 1988, dated 1995)
